Laboratory results from patent US6890736B1, “Methods for producing proteins in cultured cells” (Immunex Corporation, priority 2002, dated 2005).

Legend:
Type in all cases: cell-based, Chinese hamster
[1] = tested on: cell line 25H9 (CHO cells that produce IL-1R-II protein); experiment: Example 3: induction with 5-bromo-2′-deoxycytidine 5′-monophosphate, IL-1R-II production
Protocol: (§1) About 2×10^6 cells of cell line 25H9 were inoculated into 30 milliliters of serum-free medium and incubated at the temperatures indicated in Table 1 in vented shake flasks. At the times indicated in Table 1, samples were taken from each flask to determine IL-1R-II titer, cell number, and cell viability. IL-1R-II protein titer was determined by ELISA assay. Cell number was determined by counting cells in a hemocytometer. Cell viability was determined by trypan blue staining and counting stained cells in a hemocytometer. Cumulative viable cell density (CVCD) is the area under the curve of a plot of the viable cell density versus time (in units of cells/ml/day). Productivity (pg of IL-1R-II/cell/day) was determined by dividing the protein titer on a particular day by the CVCD on the same day. Cells were fed with amino acids on days 2 and 5, and dextrose was added periodically in order to maintain levels above 2.0 g/L. All samples were done in duplicate, and the data shown is an average value.
(§2) The following experiment compares the effects of 5-bromo-2′-deoxycytidine 5′-monophosphate and 5-aza-2′-deoxycytidine on induction of protein production. The experiment was done as described in Example 1 with the following exceptions. All cultures were incubated at 31° C., and cell number and viability were determined using a Guava PCA Cytometer (available from Guava Technologies, Hayward, Calif., USA). Samples were done in triplicate.

[2] = tested on: cell line 25H9 (CHO cells); experiment: Example 3: cell number (Guava PCA Cytometer); conditions: 31° C.
Protocol: as §1, §2

[3] = tested on: cell line 25H9 (CHO cells that produce IL-1R-II protein); experiment: Example 2: optimization of temperature and decitabine concentration, IL-1R-II production; conditions: 31° C., 0.5 mM butyrate
Protocol: as §1
(§3) To determine an optimum temperature and decitabine concentration, three temperatures (30° C., 31° C., and 32° C.) and three decitabine concentrations (10 μM, 15 μM, and 20 μM) were tested. A 31° C. culture containing 0.5 mM sodium butyrate was grown as a control. […] See e.g. International Application Nos. WO 89/06686 and WO 87/05626. The experiment was performed as in Example 1 except that the inducer concentrations, temperatures, and days at which data was collected are as indicated in Table 2 and FIG. 1.

[4] = Example 2: cell number and viability; conditions: Chinese hamster, 31° C., 0.5 mM butyrate
Protocol: as §1, §3

[5] = tested on: cell line 25H9 (CHO cells); experiment: Example 2: cell number and viability; conditions: 31° C., 0.5 mM butyrate
Protocol: as §1, §3

Nc1nc(=O)n([C@H]2C[C@H](O)[C@@H](COP(=O)(O)O)O2)cc1Br [5-bromo-2′-deoxycytidine 5′-monophosphate]
effectiveness at inducing protein production relative to 5-aza-2′-deoxycytidine ([1]; 31° C.): about twice as effective
inducing IL-1R-II production, 10 μM versus 5 μM or 15 μM ([1]; 31° C.): more effective than either 5 μM or 15 μM
Titer of IL-1R-II ([1]; 31° C., 5 μM, day 0): 0.0 mg/L
Productivity ([1]; 31° C., 5 μM, day 2): 12.4 pg of IL-1RII/cell/day
Titer of IL-1R-II ([1]; 31° C., 5 μM, day 2): 67.6 mg/L
Productivity ([1]; 31° C., 5 μM, day 5): 13.8 pg of IL-1RII/cell/day
Titer of IL-1R-II ([1]; 31° C., 5 μM, day 5): 197.4 mg/L
Productivity ([1]; 31° C., 5 μM, day 7): 14.9 pg of IL-1RII/cell/day
Titer of IL-1R-II ([1]; 31° C., 5 μM, day 7): 289.1 mg/L
Productivity ([1]; 31° C., 5 μM, day 9): 15.2 pg of IL-1RII/cell/day
Titer of IL-1R-II ([1]; 31° C., 5 μM, day 9): 357.6 mg/L
Titer of IL-1R-II ([1]; 31° C., 10 μM, day 0): 0.0 mg/L
Productivity ([1]; 31° C., 10 μM, day 2): 13.4 pg of IL-1RII/cell/day
Titer of IL-1R-II ([1]; 31° C., 10 μM, day 2): 75.0 mg/L
Productivity ([1]; 31° C., 10 μM, day 5): 17.6 pg of IL-1RII/cell/day
Titer of IL-1R-II ([1]; 31° C., 10 μM, day 5): 264.0 mg/L
Productivity ([1]; 31° C., 10 μM, day 7): 19.2 pg of IL-1RII/cell/day
Titer of IL-1R-II ([1]; 31° C., 10 μM, day 7): 401.4 mg/L
Productivity ([1]; 31° C., 10 μM, day 9): 18.6 pg of IL-1RII/cell/day
Titer of IL-1R-II ([1]; 31° C., 10 μM, day 9): 484.0 mg/L
Titer of IL-1R-II ([1]; 31° C., 15 μM, day 0): 0.0 mg/L
Productivity ([1]; 31° C., 15 μM, day 2): 11.4 pg of IL-1RII/cell/day
Titer of IL-1R-II ([1]; 31° C., 15 μM, day 2): 61.4 mg/L
Productivity ([1]; 31° C., 15 μM, day 5): 12.1 pg of IL-1RII/cell/day
Titer of IL-1R-II ([1]; 31° C., 15 μM, day 5): 167.3 mg/L
Productivity ([1]; 31° C., 15 μM, day 7): 13.4 pg of IL-1RII/cell/day
Titer of IL-1R-II ([1]; 31° C., 15 μM, day 7): 249.1 mg/L
Productivity ([1]; 31° C., 15 μM, day 9): 14.2 pg of IL-1RII/cell/day
Titer of IL-1R-II ([1]; 31° C., 15 μM, day 9): 318.3 mg/L
inducing IL-1R-II production, all three concentrations versus 10 μM 5-aza-2′-deoxycytidine ([1]; 31° C., 5, 10, 15 μM): more effective than 10 μM 5-aza-2′-deoxycytidine
Cumulative Viable Cell Density ([2]; 5 μM, day 0): 0.0 10^6 cells/ml/day
Viable Cell Density ([2]; 5 μM, day 0): 2.4 cells/ml × 10^6
Cumulative Viable Cell Density ([2]; 5 μM, day 2): 5.5 10^6 cells/ml/day
Viable Cell Density ([2]; 5 μM, day 2): 3.1 cells/ml × 10^6
Cumulative Viable Cell Density ([2]; 5 μM, day 5): 14.3 10^6 cells/ml/day
Viable Cell Density ([2]; 5 μM, day 5): 2.8 cells/ml × 10^6
Cumulative Viable Cell Density ([2]; 5 μM, day 7): 19.4 10^6 cells/ml/day
Viable Cell Density ([2]; 5 μM, day 7): 2.3 cells/ml × 10^6
Cumulative Viable Cell Density ([2]; 5 μM, day 9): 23.5 10^6 cells/ml/day
Viable Cell Density ([2]; 5 μM, day 9): 1.8 cells/ml × 10^6
Cumulative Viable Cell Density ([2]; 10 μM, day 0): 0.0 10^6 cells/ml/day
Viable Cell Density ([2]; 10 μM, day 0): 2.4 cells/ml × 10^6
Cumulative Viable Cell Density ([2]; 10 μM, day 2): 5.6 10^6 cells/ml/day
Viable Cell Density ([2]; 10 μM, day 2): 3.3 cells/ml × 10^6
Cumulative Viable Cell Density ([2]; 10 μM, day 5): 15.0 10^6 cells/ml/day
Viable Cell Density ([2]; 10 μM, day 5): 3.0 cells/ml × 10^6
Cumulative Viable Cell Density ([2]; 10 μM, day 7): 20.9 10^6 cells/ml/day
Viable Cell Density ([2]; 10 μM, day 7): 2.8 cells/ml × 10^6
Cumulative Viable Cell Density ([2]; 10 μM, day 9): 26.0 10^6 cells/ml/day
Viable Cell Density ([2]; 10 μM, day 9): 2.3 cells/ml × 10^6
Cumulative Viable Cell Density ([2]; 15 μM, day 0): 0.0 10^6 cells/ml/day
Viable Cell Density ([2]; 15 μM, day 0): 2.4 cells/ml × 10^6
Cumulative Viable Cell Density ([2]; 15 μM, day 2): 5.4 10^6 cells/ml/day
Viable Cell Density ([2]; 15 μM, day 2): 3.0 cells/ml × 10^6
Cumulative Viable Cell Density ([2]; 15 μM, day 5): 13.8 10^6 cells/ml/day
Viable Cell Density ([2]; 15 μM, day 5): 2.6 cells/ml × 10^6
Cumulative Viable Cell Density ([2]; 15 μM, day 7): 18.6 10^6 cells/ml/day
Viable Cell Density ([2]; 15 μM, day 7): 2.2 cells/ml × 10^6
Cumulative Viable Cell Density ([2]; 15 μM, day 9): 22.4 10^6 cells/ml/day
Viable Cell Density ([2]; 15 μM, day 9): 1.6 cells/ml × 10^6
viable cell density versus 10 μM 5-aza-2′-deoxycytidine ([2]; all three concentrations tested): higher

CCCC(=O)[O-].[Na+] [butyrate, sodium butyrate]
IL1R-II Titer ([3]; day 0): 0.0 µg/mL
IL1R-II Titer ([3]; day 3): 214.0 µg/mL
Productivity ([3]; day 3): 23.9 pg IL-1R-II/cell/day
IL1R-II Titer ([3]; day 6): 473.0 µg/mL
Productivity ([3]; day 6): 22.6 pg IL-1R-II/cell/day
IL1R-II Titer ([3]; day 8): 862.0 µg/mL
Productivity ([3]; day 8): 29.8 pg IL-1R-II/cell/day
viability at 0 day, 0.5 mM ([4]; day 0): 94.2%
viability at 3 day, 0.5 mM ([4]; day 3): 91.7%
viability at 6 day, 0.5 mM ([4]; day 6): 88.5%
viability at 8 day, 0.5 mM ([4]; day 8): 71.1%
Cumulative Viable Cell Density ([5]; day 0): 0 mL⁻¹ day⁻¹
Viable Cell Density ([5]; day 0): 2e+06 mL⁻¹
Cumulative Viable Cell Density ([5]; day 3): 8.9e+06 mL⁻¹ day⁻¹
Viable Cell Density ([5]; day 3): 4e+06 mL⁻¹
Cumulative Viable Cell Density ([5]; day 6): 2.09e+07 mL⁻¹ day⁻¹
Viable Cell Density ([5]; day 6): 4e+06 mL⁻¹
Cumulative Viable Cell Density ([5]; day 8): 2.89e+07 mL⁻¹ day⁻¹
Viable Cell Density ([5]; day 8): 3.9e+06 mL⁻¹
